The term IC50 denotes the concentration needed to halve the response being measured.

The structures appear in SMILES notation. The source made the active and inactive calls. The rule behind the calls is not given here.

The source of these data is PubChem BioAssay AID1419 (Emory University Molecular Libraries Screening Center, 2008).

The nature of the assay: EBV protein-peptide binding inhibitors, dose response, biochemical, fluorescence polarization (AID 1419). Conditions: cell-free protein-peptide binding, 2 h; for fold change: measured here: P channel fold over control, at 54 µM. On the technique in general: Polarisation of emitted light reports the rotation of a fluorescent probe.

`Cc1ccc2nc(SCC(=O)Nc3ccccc3N3CCOCC3)c(C#N)cc2c1`: the IC50 is > 54 µM (inactive) and the fold change was found to be 1.02.
Taken in the same sequence, the figures for `Oc1c(Cl)cc(Cl)c(Cl)c1Cc1c(O)c(Cl)cc(Cl)c1Cl` were 5.97 µM and 0.987.
Taken in the same sequence, the figures for `CCO[C@H]1OC(C(=O)N2CCCCCCC2)=C[C@@H](c2ccc(C(F)(F)F)cc2)[C@@H]1CCCO` were > 54 µM (inactive) and 0.95.
Taken in the same sequence, the figures for `Cc1ccc(S(=O)(=O)Nc2nc3ccccc3nc2Nc2cccc(S(=O)(=O)N3CCCC3)c2)cc1` were 2.64 µM and 2.44.
For the compound `COc1ccc(C(=O)c2sc3nc(C)cc(-c4cccs4)c3c2N)cc1OC`, the IC50 is 16.5 µM and the fold change was 7.43.
Taken in the same sequence, the figures for `O=c1[nH]c(=O)n(Cc2ccccc2)c(O)c1/C=C1\C=Nc2ccccc21` were 2.18 µM and 6.67.
On to `Cc1cc[n+](-c2[nH]c(=O)sc2/C=N/NC([S-])=Nc2ccccc2)cc1C`, for which the IC50 was > 54 µM (inactive) and the fold change was 1.95.
With `O=C1C(=Cc2cccn2-c2ccc(O)cc2)C(=O)c2ccccc21`, the IC50 was 1.94 µM and the fold change was 4.4.
The like results for `COc1cc2c(cc1OC)-c1cc3ccc4c(c3c[n+]1CC2)OCO4` were, in that order, < 0.42 µM and 11.6.
The like results for `Cc1ccc(N=Nc2[nH]c3ccccc3c2O)cc1` were, in that order, 4.87 µM and 27.
Taken in the same sequence, the figures for `Cc1ccc(NC2=Nc3ccccc3N3C2=Nc2c(c(C)nn2-c2ccccc2)C3c2ccc(O)c(O)c2)cc1` (configuration not stated) were 3.36 µM and 2.84.
As for `CSc1c(C#N)c(N)nc2sc(C(=O)c3ccc(Cl)c(Cl)c3)c(N)c12`, the IC50 is 1.74 µM and the fold change is 9.22.
Taken in the same sequence, the figures for `COC(=O)c1c(=O)n(O)c2ccc(OC)cc2[n+]1[O-]` were 4.69 µM and 2.93.
Taken in the same sequence, the figures for `NC(=O)c1c(NC(=O)Cn2nc(C(=O)O)c3ccccc3c2=O)sc2c1CCCC2` were > 54 µM (inactive) and 1.01.
Consider `COc1cc(C2C(C#N)=C(N)OC3=C2C(=O)CCC3)c([N+](=O)[O-])cc1OC` (configuration not stated), for which the IC50 was > 54 µM (inactive) and the fold change was 1.22.
Taken in the same sequence, the figures for `Cc1ccc(CSc2nnc3c(n2)OC2(Nc4ccccc4-3)C(=O)Nc3ccc(F)cc32)cc1` (configuration not stated) were 6.29 µM and 16.9.
For `Cc1c2ccccc2nc2c(F)c(N(C)C)c(F)c(F)c12`, the IC50 was < 0.42 µM and the fold change stood at 8.81.
Taken in the same sequence, the figures for `CCc1nn2c(=O)cc(COc3ccc(/C=C4\C(=N)N5N=C(C)SC5=NC4=O)cc3)nc2s1` were 16.6 µM and 1.14.
On to `CCOc1cc(-c2ccc(N)c(OCC)c2)ccc1N`, for which the half-inhibitory concentration (IC50) is 1.52 µM and the fold change was 5.61.
The like results for `O=C1c2cccc3c(N4CCCCC4)ccc(c23)C(=O)N1c1ccccn1` were, in that order, < 0.42 µM and 11.5.
For `O=c1[nH]c(Nc2ccccc2)cc2ccccc12`, the IC50 is 2.02 µM and the fold change amounted to 2.34.
`Nc1c(C(=O)NCC2CCCO2)sc2nc3c(c(-c4ccco4)c12)CC/C3=C\c1ccco1` (configuration not stated): the IC50 was < 0.42 µM and the fold change was 3.22.
On to `CCCCC1=CC2=C(c3ccco3)C(=O)C(C)(OC(=O)c3ccc(OC)cc3)C(=O)C2=CN1CCc1ccccn1` (configuration not stated), for which the IC50 was > 54 µM (inactive) and the fold change was 1.16.
Turning to `CCOC(=O)[C@@]1(C#N)C(c2ccc(Cl)c(Cl)c2)[C@H](C(N)=O)N2C=C(C(C)=O)C=C[C@H]21` (some centres not stated), the IC50 is 1.41 µM and the fold change was 9.48.
Taken in the same sequence, the figures for `O=C(NC(NC(=S)Nc1ccc(Cl)cc1Cl)C(Cl)(Cl)Cl)c1cccc([N+](=O)[O-])c1` (configuration not stated) were > 54 µM (inactive) and 0.953.
For the compound `Cc1cc(/C=C2\SC(=S)N(Cc3ccco3)C2=O)c(C)n1-c1cccnc1`, the IC50 is 8.64 µM and the fold change stood at 18.3.
Regarding `O=C1NC(=O)N(c2ccc(F)cc2)C(=O)/C1=C/c1ccc2c(c1)CCCN2Cc1ccccc1`, the IC50 is < 0.42 µM and the fold change amounted to 38.
In the case of `O=C(C1=NN(c2ccccc2)C2C(=O)N(c3ccc(Cl)cc3)C(=O)C12)c1ccccc1` (configuration not stated), the IC50 was > 54 µM (inactive) and the fold change is 5.95.
As to `CCn1c2ccccc2c2cc(NC(=O)c3ccc(=O)oc3)ccc21`, the IC50 is > 54 µM (inactive) and the fold change came to 1.77.
The like results for `O=C1c2ccccc2-c2onc3ccc(NCc4ccco4)c1c23` were, in that order, < 0.42 µM and 61.5.
The like results for `CCOC(=O)C1CCCN(c2ccc([N+](=O)[O-])c3nonc23)C1` (configuration not stated) were, in that order, < 0.42 µM and 143.
For the compound `O=c1oc2c3c4c(cc2c(C(F)(F)F)c1CCN1CCOCC1)CCCN4CCC3`, the IC50 was < 0.42 µM and the fold change came to 35.9.
The like results for `Cc1cc[n+](-c2[nH]c(=O)sc2/C=N/NC([S-])=Nc2ccccc2)cc1` were, in that order, > 54 µM (inactive) and 1.42.
The like results for `CC1CC=C2C(C#N)=C(N)C(C#N)(C#N)C(c3cccs3)C2C1` (configuration not stated) were, in that order, 12.8 µM and 2.49.
Taken in the same sequence, the figures for `O=c1oc2cc(O)ccc2cc1-c1nc2c(s1)CCc1ccccc1-2` were < 0.42 µM and 37.6.
Consider `COc1cccc(Nc2ncccc2C(=O)NCc2ccccc2)c1`, for which the IC50 is 2.59 µM and the fold change turned out to be 3.14.
Taken in the same sequence, the figures for `O=C(Nc1ccncc1)Nc1ccc(F)cc1F` were > 54 µM (inactive) and 1.04.
Taken in the same sequence, the figures for `N#CC(c1nc2ccccc2nc1N1CCCC1)S(=O)(=O)c1ccccc1` (configuration not stated) were > 54 µM (inactive) and 1.79.
For `N=c1oc2ccc3ccccc3c2cc1-c1nc(-c2ccccc2)cs1`, the concentration for half-maximal inhibition (IC50) is 4.67 µM and the fold change stood at 8.37.
Taken in the same sequence, the figures for `O=[N+]([O-])c1cccc(-c2cn3nc(-c4ccccc4)c(-c4ccccc4)nc3n2)c1` were 5.71 µM and 6.61.
The like results for `C/C=C/C=C/[C@H]1Cc2cc(O)cc(O)c2O1` were, in that order, 13 µM and 2.04.
Regarding `CC(C)Oc1ccc(NC(=O)CCC(=O)O)cc1`, the IC50 is > 54 µM (inactive) and the fold change was 1.01.
Taken in the same sequence, the figures for `CC(=O)c1ccc(N2C(=O)C3C(C2=O)C(C(=O)c2ccc(Cl)cc2)N2CCCC32)cc1` (configuration not stated) were 7.19 µM and 8.74.
The like results for `CCc1ccc(NC(=O)c2ccc3ncsc3c2)cc1` were, in that order, > 54 µM (inactive) and 0.87.
Consider `Cc1ccc2c3c(cccc13)-c1ccccc1C2=O`, for which the IC50 is 2.37 µM and the fold change was 2.72.
The like results for `COc1ccccc1NC(=O)CC(c1ccc(OC(C)C)cc1)c1ccccc1OC` (configuration not stated) were, in that order, > 54 µM (inactive) and 0.927.
Taken in the same sequence, the figures for `Cc1ccc(C(=O)ONc2ccc(N=NC(=O)c3ccccc3O)cc2)cc1` were 4.35 µM and 0.99.
The like results for `C=CCn1c(O)c(N=NC(=O)CNC(=O)/C=C/c2ccco2)c2ccccc21` were, in that order, > 54 µM (inactive) and 0.747.
Regarding `Cc1ccc(C)c(S(=O)(=O)C(C#N)c2nc3ccccc3nc2N2CCCC2)c1` (configuration not stated), the IC50 was 4.06 µM and the fold change was 1.67.
Turning to `O=C1Nc2ccc(Cl)cc2C12Nc1ccccc1-c1nnc(SCc3ccccc3F)nc1O2` (configuration not stated), the IC50 was 3.05 µM and the fold change stood at 14.3.
Taken in the same sequence, the figures for `CCCCOc1ccc(-c2cc(C(F)(F)F)c(C#N)c(SCC(=O)O)n2)cc1` were 6.68 µM and 4.
In the case of `CN(C)c1ccc(N=Cc2nc(-c3ccccc3)oc2O)cc1`, the IC50 is 6.01 µM and the fold change came out at 21.1.
The like results for `Cc1cc(C=C2C(=O)NC(=S)NC2=O)c(C)n1-c1ccc2c(c1)OCO2` were, in that order, 43.5 µM (inactive) and 2.39.
With `CCc1ccc2nc3sc(C(=O)N4CCc5ccccc54)c(N)c3cc2c1`, the IC50 was < 0.42 µM and the fold change came out at 16.6.
Taken in the same sequence, the figures for `Cc1ccccc1NC(=O)CSc1ccsc1[N+](=O)[O-]` were 15.2 µM and 1.04.
Taken in the same sequence, the figures for `COc1nc(N/N=C/c2ccc(-c3cccc([N+](=O)[O-])c3)o2)nc(N2CCOCC2)n1` were 24.2 µM and 0.463.
`C=CCn1c(C)cc(C(=O)COC(=O)COc2ccccc2C#N)c1C`: the IC50 is > 54 µM (inactive) and the fold change was 1.04.
With `O=c1ccc2cc3c4c(c2o1)CCCN4CCC3`, the half-maximal inhibitory concentration (IC50) was < 0.42 µM and the fold change worked out at 36.4.
In the case of `COc1ccc(/C=C2\SC(=O)N(CC(=O)NNC(=O)c3ccccc3O)C2=O)cc1`, the IC50 was > 54 µM (inactive) and the fold change worked out at 1.01.
The like results for `COc1ccc(OC)c(/C=c2\sc3nc(-c4cccs4)nn3c2=O)c1` were, in that order, 6.04 µM and 5.71.
The like results for `Clc1ccc(OCc2nnc(-c3ccccc3Br)o2)c(Cl)c1` were, in that order, > 54 µM (inactive) and 1.
The like results for `CC(C)(CCl)C(=O)Nc1ccc(OC(F)(F)F)cc1` were, in that order, > 54 µM (inactive) and 1.14.
With `N#CC1=C(N)OC2=C(CC/C2=C\c2ccccc2)C1c1ccccc1` (configuration not stated), the IC50 was < 0.42 µM and the fold change amounted to 6.24.
Taken in the same sequence, the figures for `O=C(c1ccc2nc(-c3ccco3)c(-c3ccco3)nc2c1)N1CCN(c2ncccn2)CC1` were > 54 µM (inactive) and 1.05.
As to `Oc1oc(-c2ccccc2)nc1C=Nc1cccc2ccccc12`, the IC50 is 7.47 µM and the fold change came to 3.16.
The like results for `O=C(Nc1cccc([N+](=O)[O-])c1)c1cnccn1` were, in that order, > 54 µM (inactive) and 1.09.
